{
  "source": "patent US5134137A",
  "about": "“Cephalosporin antibiotics” (The Upjohn Company, priority 1990, dated 1992)",
  "assay_type_in_all_cases": "cell-based",
  "key": {"[1]": {"system": "Salmonella choleraesuis", "test": "MIC, agar dilution, Salmonella choleraesuis", "procedure": "(§1) Stock solution of each test antibiotic compound were prepared to have a concentration of 2 mg. of the test compound per milliliter in sterile water of 0.1M ammonium acetate solution. The amount of each compound used was adjusted for base compound activity as calculated from the purity data for the selected batch of compound.\n(§2) The dilution procedure described by Washington and Sutter [Manual of Clinical Microbiology, 3rd, Edit. (Lennett, E. H. et al, Eds.), pp. 453-458 (1980), American Society for Microbiology, Washington, D.C.] was modified so that serial concentrations of 128 to 0.0625 microgram/ml. in sterile water was obtained. Then 1.5 ml. aliquots of these test antibiotic dilution mixtures are added to 13.5 molten (50° C.) Mueller-Hinton agar. Each resulting mixture is poured into 15×100 mm, sterile Petri plates and allowed to dry at room temperature overnight.\n(§3) Test bacterial cultures are maintained at -70° C. on glass beads. [See R. J. Yancey, Jr. et al, Amer. Jr. of Vet. Research, 48, No. 7, pp. 1050-1053, (1987)]. At least one bacteria-laden bead per culture is dropped into one ml. of brain heart infusion (BHI) broth for overnight culture at 37° C. in 5% V/V carbon dioxide in air atmosphere.\n(§4) On the data of assay, 2 to 8 drops of the bacterial broth cultures are transferred to fresh BHI broth (1 ml.) and the mixture is incubated for 4 to 6 hours at 37° C. in a 5% V/V carbon dioxide in air atmosphere. The resulting cultures are then diluted to match a 0.5 MacFarland standard and further diluted 1:20 V/V with sterile saline solution.\n(§5) A 0.001 ml. drop of the resulting mixture, containing approximately 10^3 to 10^4 colony forming units (CFU) of each test bacteria organism, is dispensed onto the surface of the test antibiotic compound test plates with a Steer's type replicator. The resulting innoculated plates are incubated 16 to 18 hours at 37° C. with a carbon dioxide atmosphere.\nas §1, with “Stock solutions” for “Stock solution”\nas §2, with “mm.” for “mm,”\nas §2, with “for Microbiology.” for “for Microbiology,”, “15×100 mm.” for “15×100 mm,”\nas §3, with “culture” for “cultures”\n(§6) On the day of assay, 2 to 8 drops of the bacterial broth cultures are transferred to fresh BHI broth (1 ml.) and the mixture is incubated for 4 to 6 hours at 37° C. in a 5% V/V carbon dioxide in air atmosphere. […]"}, "[2]": {"system": "Pasteurella multocida", "test": "MIC, agar dilution, Pasteurella multocida", "details": "strain UC9581", "procedure": "as §1, §2, §3, §4, §5\nas §1, with “Stock solutions” for “Stock solution”\nas §2, with “mm.” for “mm,”\nas §2, with “for Microbiology.” for “for Microbiology,”, “15×100 mm.” for “15×100 mm,”\nas §3, with “culture” for “cultures”\nas §6"}, "[3]": {"system": "Enterococcus faecalis", "test": "MIC, agar dilution, Enterococcus faecalis", "details": "strain UC694", "procedure": "as §1, with “Stock solutions” for “Stock solution”\nas §2, §3, §4, §5, §1\nas §2, with “mm.” for “mm,”\nas §2, with “for Microbiology.” for “for Microbiology,”, “15×100 mm.” for “15×100 mm,”\nas §3, with “culture” for “cultures”\nas §6"}, "[4]": {"system": "Escherichia coli", "test": "MIC, agar dilution, Escherichia coli", "procedure": "as §1, §2, §3, §4, §5\nas §1, with “Stock solutions” for “Stock solution”\nas §2, with “mm.” for “mm,”\nas §2, with “for Microbiology.” for “for Microbiology,”, “15×100 mm.” for “15×100 mm,”\nas §3, with “culture” for “cultures”\nas §6"}, "[5]": {"system": "Streptococcus suis", "test": "MIC, agar dilution, Streptococcus suis", "details": "strain 650-2", "procedure": "as §1, §2, §3, §4, §5\nas §1, with “Stock solutions” for “Stock solution”\nas §2, with “mm.” for “mm,”\nas §2, with “for Microbiology.” for “for Microbiology,”, “15×100 mm.” for “15×100 mm,”\nas §3, with “culture” for “cultures”\nas §6"}, "[6]": {"system": "Streptococcus uberis", "test": "MIC, agar dilution, Streptococcus uberis", "procedure": "as §1, §2, §3, §4, §5\nas §1, with “Stock solutions” for “Stock solution”\nas §2, with “mm.” for “mm,”\nas §2, with “for Microbiology.” for “for Microbiology,”, “15×100 mm.” for “15×100 mm,”\nas §3, with “culture” for “cultures”\nas §6"}, "[7]": {"system": "Staphylococcus aureus", "test": "MIC, agar dilution, Staphylococcus aureus", "procedure": "as §1, §2, §3, §4, §5\nas §1, with “Stock solutions” for “Stock solution”\nas §2, with “mm.” for “mm,”\nas §2, with “for Microbiology.” for “for Microbiology,”, “15×100 mm.” for “15×100 mm,”\nas §3, with “culture” for “cultures”\nas §6"}, "[8]": {"system": "Corynebacterium pyogenes", "test": "MIC, agar dilution, Corynebacterium pyogenes", "details": "strain 213-2", "procedure": "as §1, §2, §3, §4, §5\nas §1, with “Stock solutions” for “Stock solution”\nas §2, with “mm.” for “mm,”\nas §2, with “for Microbiology.” for “for Microbiology,”, “15×100 mm.” for “15×100 mm,”\nas §3, with “culture” for “cultures”\nas §6"}, "[9]": {"system": "Streptococcus agalactiae", "test": "MIC, agar dilution, Streptococcus agalactiae", "procedure": "as §1, §2, §3, §4, §5\nas §1, with “Stock solutions” for “Stock solution”\nas §2, with “mm.” for “mm,”\nas §2, with “for Microbiology.” for “for Microbiology,”, “15×100 mm.” for “15×100 mm,”\nas §3, with “culture” for “cultures”\nas §6"}, "[10]": {"system": "Streptococcus dysgalactiae", "test": "MIC, agar dilution, Streptococcus dysgalactiae", "details": "strain UC251", "procedure": "as §1, §2, §3, §4, §5\nas §1, with “Stock solutions” for “Stock solution”\nas §2, with “mm.” for “mm,”\nas §2, with “for Microbiology.” for “for Microbiology,”, “15×100 mm.” for “15×100 mm,”\nas §3, with “culture” for “cultures”\nas §6"}, "[11]": {"system": "Pseudomonas aeruginosa", "test": "MIC, agar dilution, Pseudomonas aeruginosa", "details": "strain ATCC 27853", "procedure": "as §1, §2, §3, §4, §5\nas §1, with “Stock solutions” for “Stock solution”\nas §2, with “mm.” for “mm,”\nas §2, with “for Microbiology.” for “for Microbiology,”, “15×100 mm.” for “15×100 mm,”\nas §3, with “culture” for “cultures”\nas §6"}, "[12]": {"system": "Salmonella typhimurium", "test": "MIC, agar dilution, Salmonella typhimurium", "procedure": "as §1, §2, §3, §4, §5\nas §1, with “Stock solutions” for “Stock solution”\nas §2, with “mm.” for “mm,”\nas §2, with “for Microbiology.” for “for Microbiology,”, “15×100 mm.” for “15×100 mm,”\nas §3, with “culture” for “cultures”\nas §6"}, "[13]": {"system": "Streptococcus bovis", "test": "MIC, agar dilution, Streptococcus bovis", "details": "strain UC6281", "procedure": "as §1, §2, §3, §4, §5\nas §1, with “Stock solutions” for “Stock solution”\nas §2, with “mm.” for “mm,”\nas §2, with “for Microbiology.” for “for Microbiology,”, “15×100 mm.” for “15×100 mm,”\nas §3, with “culture” for “cultures”\nas §6"}, "[14]": {"system": "Bordetella bronchiseptica", "test": "MIC, agar dilution, Bordetella bronchiseptica", "details": "strain UC6313", "procedure": "as §1, §2, §3, §4, §5\nas §1, with “Stock solutions” for “Stock solution”\nas §2, with “mm.” for “mm,”\nas §2, with “for Microbiology.” for “for Microbiology,”, “15×100 mm.” for “15×100 mm,”\nas §3, with “culture” for “cultures”\nas §6"}, "[15]": {"system": "Enterococcus faecium", "test": "MIC, agar dilution, Enterococcus faecium", "details": "strain UC241", "procedure": "as §1, with “Stock solutions” for “Stock solution”\nas §2, §3, §4, §5, §1\nas §2, with “mm.” for “mm,”\nas §2, with “for Microbiology.” for “for Microbiology,”, “15×100 mm.” for “15×100 mm,”\nas §3, with “culture” for “cultures”\nas §6"}, "[16]": {"system": "Pasteurella hemolytica", "test": "MIC (minimum inhibitory concentration), agar dilution, Pasteurella hemolytica", "procedure": "as §1, §2, §3, §4, §5\nas §1, with “Stock solutions” for “Stock solution”\nas §2, with “mm.” for “mm,”\nas §2, with “for Microbiology.” for “for Microbiology,”, “15×100 mm.” for “15×100 mm,”\nas §3, with “culture” for “cultures”\nas §6"}, "[17]": {"system": "Micrococcus luteus", "test": "MIC, agar dilution, Micrococcus luteus", "details": "strain UC130", "procedure": "as §1, §2, §3, §4, §5\nas §1, with “Stock solutions” for “Stock solution”\nas §2, with “mm.” for “mm,”\nas §2, with “for Microbiology.” for “for Microbiology,”, “15×100 mm.” for “15×100 mm,”\nas §3, with “culture” for “cultures”\nas §6"}},
  "data": [
    {"compound": "CCSSCC1=C(C(=O)O)N2C(=O)C(NC(=O)C(=NOC)c3csc(N)n3)C2SC1", "note": "(stereo not drawn) [Example 10, 7-[2-(2-amino-1,3-thiazol-4-yl)-2-(methoxyimino)acetamido]-3-ethyldithiomethyl-3-cephem-4-carboxylic acid]", "values": [
      {"measurement": "MIC", "setting": "[1]; strain UC6073", "result": 16, "unit": "µg/mL"},
      {"measurement": "MIC", "setting": "[1]; strain UC6077", "result": 32, "unit": "µg/mL"},
      {"measurement": "MIC", "setting": "[2]", "result": 4, "unit": "µg/mL"},
      {"measurement": "MIC", "setting": "[3]", "result": 32, "unit": "µg/mL"},
      {"measurement": "MIC", "setting": "[4]; strain UC3784", "result": 4, "unit": "µg/mL"},
      {"measurement": "MIC", "setting": "[4]; strain UC6720", "result": 8, "unit": "µg/mL"},
      {"measurement": "MIC", "setting": "[4]; strain UC9670", "result": 4, "unit": "µg/mL"},
      {"measurement": "MIC", "setting": "[5]", "result": "≤ 0.06", "unit": "µg/mL"},
      {"measurement": "MIC", "setting": "[6]; strain UC3946", "result": 0.25, "unit": "µg/mL"},
      {"measurement": "MIC", "setting": "[6]; strain UC6159", "result": "> 32", "unit": "µg/mL"},
      {"measurement": "MIC", "setting": "[7]; strain UC6093", "result": 4, "unit": "µg/mL"},
      {"measurement": "MIC", "setting": "[7]; strain UC6097", "result": 2, "unit": "µg/mL"},
      {"measurement": "MIC", "setting": "[7]; strain UC9203", "result": 2, "unit": "µg/mL"},
      {"measurement": "MIC", "setting": "[8]", "result": 32, "unit": "µg/mL"},
      {"measurement": "MIC", "setting": "[9]; strain UC3947", "result": 2, "unit": "µg/mL"},
      {"measurement": "MIC", "setting": "[9]; strain UC6892", "result": "> 32", "unit": "µg/mL"},
      {"measurement": "MIC", "setting": "[10]", "result": "≤ 0.06", "unit": "µg/mL"},
      {"measurement": "MIC", "setting": "[11]", "result": "> 32", "unit": "µg/mL"},
      {"measurement": "MIC", "setting": "[12]; strain UC6162", "result": 8, "unit": "µg/mL"},
      {"measurement": "MIC", "setting": "[12]; strain UC6164", "result": 8, "unit": "µg/mL"},
      {"measurement": "MIC", "setting": "[13]", "result": "> 32", "unit": "µg/mL"},
      {"measurement": "MIC", "setting": "[14]", "result": 16, "unit": "µg/mL"},
      {"measurement": "MIC", "setting": "[15]", "result": 32, "unit": "µg/mL"},
      {"measurement": "MIC", "setting": "[16]; strain UC6531", "result": 0.25, "unit": "µg/mL"},
      {"measurement": "MIC", "setting": "[16]; strain UC6532", "result": 0.25, "unit": "µg/mL"},
      {"measurement": "MIC", "setting": "[16]; strain UC9582", "result": 0.5, "unit": "µg/mL"},
      {"measurement": "MIC", "setting": "[17]", "result": 0.5, "unit": "µg/mL"}
    ]}
  ]
}
